US20240390377A1, “COMPOSITION FOR THE PREVENTION OR TREATMENT OF NEURODEGENERATIVE OR MOTOR NEURON DISEASES COMPRISING HALOFUGINONE AS AN ACTIVE INGREDIENT” (CURAMYS CO., LTD., priority 2022, published 2024)

System: G93A mutant SOD1 mouse-derived fibroblasts
Experiment: Western blot analysis of ALS animal model-derived fibroblasts
Assay type: cell-based
Settings: low or high concentration halofuginone for 24 hours; elevation vs Non-TG fibroblasts (FIG. 5b)
Excerpt: Specifically, primary fibroblasts were isolated from skeletal muscle of 120-day-old non-transformed or G93A mutant SOD1 transgenic mice of Example 4. The excised tissue was placed on 100-mm culture dishes containing HBSS (Hanks' Balanced Salt Solution; Gibco, cat #14175095) and penicillin-streptomycin (Cat #15070-063, Thermo Fisher Scientific) without calcium and magnesium. Muscle tissue was cut on ice blocks. Then, the tissue was cut into 1 mm pieces and enzymatically reacted with 0.2% IV type collagenase (Sigma) at 37° C. for 1 hour. The enzymatic reaction was stopped by the addition of 10 ml of FBS (Gibco). The tissue mixture was centrifuged at 1,800 rpm at 4° C. for 5 min and resuspended with DMEM medium (Welgene) with 10% FBS. Cells were filtered through a 70 μm cell filter (BD Biosciences, San Jose, CA) and incubated in 0.2% gelatin-coated plates with DMEM medium with 10% FBS, 1% penicillin-streptomycin. Then, halofuginone was treated in the same manner as described in Example 1.
Specifically, the lumbar spinal cord or knee joint of the mouse of Example 6 was separated and immediately frozen at −80° C. Each lumbar spinal cord or knee joint was then homogenized and chemically treated to obtain cells. The chemically treated cells, the C2C12 cells of Example 1 or the fibroblasts of Example 5 were dissolved in a RIPA buffer (Thermo, MA, USA) with a protease inhibitor and a phosphatase inhibitor (Roche, IN, USA) and incubated on ice for 30 minutes. After centrifugation of the lysate at 13,000 rpm at 4° C. for 20 min, insoluble substances were removed. Protein concentrations were measured by BCA analysis (Pierce Biotechnology). Equal volumes of cell lysate were loaded onto SDS-PAGE gels for electrophoresis, and transferred onto nitrocellulose membranes (Amersham Protran 0.2 um NC, Amersham Pharmacia Biotech, Piscataway, NJ, USA). The membranes were then blocked with 5% (w/v) skimmilk in 1×TBST for 1 h at room temperature. […] The membranes were then washed, briefly incubated with the SuperSignal West Pico Plus Chemical Substructure (Pierce Biotechnology) according to the manufacturer's procedure, and quantified with an image analyzer (Amersham Pharmacia Biotech, Piscataway, NJ, USA). β-actin was used as an internal control group. The concentration measurement of protein intensity was quantified using Image J (National Institutes of Health). […]

O=C(C[C@H]1NCCC[C@@H]1O)Cn1cnc2cc(Br)c(Cl)cc2c1=O (racemic) [halofuginone]
attenuated: elevated Col-I protein expression | elevated TGF-β protein expression | elevated p-Smad2/Smad2 ratio | elevated α-SMA protein expression
